Test [1] concerns the target PI3Kα (p110α/p85α) (Homo sapiens (Human), UniProt P42336). In words: PI3Kα enzymatic test by measuring the consumption of ATP. The format is biochemical. In short, it runs like this: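 p110α/p85α (1.7 μg/ml) with 50 μM PIP2 and 2 μM ATP in pH 7.5 Tris buffer with EGTA, MgCl2, Chaps, DTT; reaction 90 min. Remaining ATP measured by luciferin/luciferase luminescence; IC50 from threefold serial dilutions spanning at least 10 000-fold.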

In test [2] the test system is U87MG tumour cells. Put plainly: Test of in vitro proliferation of U87MG tumour cells. The note with it: Homo sapiens, U-87 MG, 72 h, U87MG cells, 72 hours; read-out: U87 Cell Proliferation IC50. The format is cell-based. On the procedure: Model 4: Test of in vitro Proliferation of U87MG Tumour Cells.
The cell growth is determined with the reagent CellTiter 96 AQueous One Solution Cell Proliferation Assay from Promega (Cat. No. G3581).

The test system of test [3] is Akt-pS473 in U87MG cells. The note with it: Homo sapiens, U-87 MG, read-out: U87 Akt-pS473 % Inhibition or IC50, nM (IC50), U87MG cells.
Procedure: Model 3: Cellular Test of Phosphorylation of the Epitope S473 of the Akt Protein on the U87MG Line Via an ELISA Test
An electrochemiluminescence signal is generated by a ruthenium-labelled anti-rabbit antibody.
After culturing for 16-20 hours (the cells are at 100% of confluence) at 37° C. under 5% CO2, 1 μl of the chemical compounds in 100% DMSO (1% DMSO final concentration on the cells) is added. The cells are incubated with the compounds for 3 hours at 37° C. under 5% CO2.
The free sites are blocked with 150 μl/well of a buffer of 50 mM Tris pH 7.5, 0.15 M NaCl, 0.02% Tween 20, 3% BSA with stirring at 450 rpm for 1 hour at room temperature, followed by a step of washing with 3×300 μl of a buffer of 50 mM Tris pH 7.5, 0.15 M NaCl, 0.02% Tween 20.
15 μl of cell lysate are mixed with 15 μl of a 50 mM buffer of Tris pH 7.5, 0.15 M NaCl, 0.02% Tween 20, 1% BSA in a precoated ELISA plate (see above), and incubated for 1 hour at room temperature with stirring, followed by a step of washing with 3×300 μl of a buffer of 50 mM Tris pH 7.5, 0.15 M NaCl, 0.02% Tween 20. The pS473 epitope of Akt is detected with a rabbit polyclonal antibody (Cell Signaling, SC9271), diluted 100-fold in 50 mM Tris pH 7.5, 0.15 M NaCl, 0.02% Tween 20, 1% BSA, 25 μl/well (incubation for 1 hour at room temperature with stirring at 450 rpm).
After washing (see above), revelation is performed with a ruthenium-labelled anti-rabbit antibody (MSD R32AB1), diluted 3000-fold in a 50 mM buffer of Tris pH 7.5, 0.15 M NaCl, 0.02% Tween 20, 1% BSA, 25 μl/well, followed by incubation for 1 hour at room temperature with stirring at 450 rpm, and the plates are covered with aluminium.
After a further washing step, the plates are emptied and 150 μl of MSD Read Buffer T diluted fourfold with water are added. The electrochemiluminescence is measured on the MSD Sector Imager 6000.
The target of test [4] is mTOR (human recombinant aa mTOR 1360-2549) (Homo sapiens (Human), UniProt P42345). In words: mTOR enzymatic test by TR-FRET (phosphorylation of GFP-4EBP1). Type of test: biochemical. In outline:
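TR-FRET detection of GFP-4EBP1 phosphorylation by a terbium-labelled anti-phospho-Thr46 antibody. Kinase reaction ran 30 min at room temperature, was quenched with EDTA (10 mM final) plus Tb-antibody (2 nM final) and left 60 min. Emission at 520 and 490 nm after 340 nm excitation, reported as the 520/490 ratio.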
Background: Time-resolved FRET reads energy transfer from a long-lived donor to a nearby acceptor.

Sequence of mTOR (human recombinant aa mTOR 1360-2549) (P42345 1360-2549): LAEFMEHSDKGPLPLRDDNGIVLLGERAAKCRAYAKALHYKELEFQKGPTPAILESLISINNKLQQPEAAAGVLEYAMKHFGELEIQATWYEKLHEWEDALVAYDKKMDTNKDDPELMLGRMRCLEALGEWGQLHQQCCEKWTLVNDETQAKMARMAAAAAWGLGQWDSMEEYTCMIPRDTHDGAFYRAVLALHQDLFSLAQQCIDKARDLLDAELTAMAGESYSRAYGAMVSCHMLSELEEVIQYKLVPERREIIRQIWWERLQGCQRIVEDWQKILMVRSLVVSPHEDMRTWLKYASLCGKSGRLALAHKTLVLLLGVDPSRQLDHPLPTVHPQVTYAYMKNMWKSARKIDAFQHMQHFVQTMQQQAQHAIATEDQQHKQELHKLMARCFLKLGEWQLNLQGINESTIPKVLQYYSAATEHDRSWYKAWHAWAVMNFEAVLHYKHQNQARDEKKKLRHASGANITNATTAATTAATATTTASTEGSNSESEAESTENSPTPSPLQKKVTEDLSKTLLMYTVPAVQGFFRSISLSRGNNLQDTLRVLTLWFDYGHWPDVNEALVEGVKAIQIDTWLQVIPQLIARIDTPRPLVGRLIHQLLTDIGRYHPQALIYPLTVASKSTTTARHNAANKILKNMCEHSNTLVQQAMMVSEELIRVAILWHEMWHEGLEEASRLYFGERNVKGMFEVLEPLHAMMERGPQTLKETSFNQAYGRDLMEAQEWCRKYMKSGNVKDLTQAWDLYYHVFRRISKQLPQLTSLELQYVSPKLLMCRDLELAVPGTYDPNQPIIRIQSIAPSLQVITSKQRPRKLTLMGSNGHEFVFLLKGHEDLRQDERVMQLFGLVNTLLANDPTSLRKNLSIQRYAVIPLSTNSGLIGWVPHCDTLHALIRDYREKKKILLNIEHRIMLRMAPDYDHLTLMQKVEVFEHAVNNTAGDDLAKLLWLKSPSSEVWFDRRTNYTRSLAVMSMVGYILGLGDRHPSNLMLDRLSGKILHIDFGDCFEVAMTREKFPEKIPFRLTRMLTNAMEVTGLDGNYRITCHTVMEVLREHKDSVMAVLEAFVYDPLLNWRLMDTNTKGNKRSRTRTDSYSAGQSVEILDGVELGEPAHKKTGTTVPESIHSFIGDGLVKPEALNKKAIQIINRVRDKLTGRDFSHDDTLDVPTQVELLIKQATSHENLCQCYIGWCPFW
Sequence of PI3Kα (p110α/p85α) (P42336 whole entry): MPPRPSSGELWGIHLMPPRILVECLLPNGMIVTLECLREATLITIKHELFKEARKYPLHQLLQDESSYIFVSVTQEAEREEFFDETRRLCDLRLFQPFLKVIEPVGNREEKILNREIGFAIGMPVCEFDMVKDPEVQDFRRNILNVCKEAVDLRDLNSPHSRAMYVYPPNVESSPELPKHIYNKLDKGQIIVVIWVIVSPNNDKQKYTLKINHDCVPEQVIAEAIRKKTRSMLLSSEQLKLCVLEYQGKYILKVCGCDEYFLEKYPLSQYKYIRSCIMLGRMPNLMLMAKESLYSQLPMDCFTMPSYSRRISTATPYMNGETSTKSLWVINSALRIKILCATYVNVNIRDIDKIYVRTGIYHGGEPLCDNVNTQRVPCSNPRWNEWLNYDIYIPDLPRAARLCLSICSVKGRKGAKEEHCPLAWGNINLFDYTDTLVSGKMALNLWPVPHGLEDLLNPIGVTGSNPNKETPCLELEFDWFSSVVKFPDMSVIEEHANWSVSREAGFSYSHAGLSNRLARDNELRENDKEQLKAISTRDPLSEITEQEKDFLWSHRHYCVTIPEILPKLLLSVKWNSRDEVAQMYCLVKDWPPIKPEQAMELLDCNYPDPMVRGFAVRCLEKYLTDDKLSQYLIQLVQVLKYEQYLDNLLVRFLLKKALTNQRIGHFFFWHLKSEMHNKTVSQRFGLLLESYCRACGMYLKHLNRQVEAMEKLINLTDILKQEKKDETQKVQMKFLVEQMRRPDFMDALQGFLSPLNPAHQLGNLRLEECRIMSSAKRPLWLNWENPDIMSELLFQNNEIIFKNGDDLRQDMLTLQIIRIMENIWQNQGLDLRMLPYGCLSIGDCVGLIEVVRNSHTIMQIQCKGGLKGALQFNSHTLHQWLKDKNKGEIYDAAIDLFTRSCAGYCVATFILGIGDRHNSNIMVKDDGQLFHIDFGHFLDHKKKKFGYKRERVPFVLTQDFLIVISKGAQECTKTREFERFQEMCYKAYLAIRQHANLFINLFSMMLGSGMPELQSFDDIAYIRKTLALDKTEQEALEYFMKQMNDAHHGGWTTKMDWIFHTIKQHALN
Sequence of PI3Kα (p110α/p85α) (P27986 whole entry partner): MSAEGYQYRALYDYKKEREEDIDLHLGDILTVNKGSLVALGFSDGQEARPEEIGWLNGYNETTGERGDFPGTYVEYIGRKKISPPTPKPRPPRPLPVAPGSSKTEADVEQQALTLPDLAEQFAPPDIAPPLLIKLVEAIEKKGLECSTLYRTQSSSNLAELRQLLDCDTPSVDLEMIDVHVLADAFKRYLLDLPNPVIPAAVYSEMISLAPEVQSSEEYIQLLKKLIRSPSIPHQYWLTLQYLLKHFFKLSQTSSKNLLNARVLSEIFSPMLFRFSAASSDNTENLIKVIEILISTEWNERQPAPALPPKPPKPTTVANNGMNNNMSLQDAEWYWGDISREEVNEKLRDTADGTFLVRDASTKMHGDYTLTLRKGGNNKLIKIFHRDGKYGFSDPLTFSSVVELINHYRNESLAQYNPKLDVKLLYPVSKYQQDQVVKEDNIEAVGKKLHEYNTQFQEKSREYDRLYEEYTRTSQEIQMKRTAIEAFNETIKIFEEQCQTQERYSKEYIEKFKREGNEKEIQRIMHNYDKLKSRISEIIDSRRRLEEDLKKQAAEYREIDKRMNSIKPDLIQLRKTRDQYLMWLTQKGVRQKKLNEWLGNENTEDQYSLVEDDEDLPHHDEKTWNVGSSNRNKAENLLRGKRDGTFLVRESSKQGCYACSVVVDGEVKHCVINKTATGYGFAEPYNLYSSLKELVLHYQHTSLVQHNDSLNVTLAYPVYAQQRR

Take `CNC(=O)Nc1ccc(-c2nc(N3CC4CCC(C3)O4)nc3c2C(=O)N(C)CC(C)(C)O3)cc1` [Example 38, 1-Methyl-3-{4-[6,8,8-trimethyl-2-(8-oxa-3-azabicyclo[3.2.1]oct-3-yl)-5-oxo-5,6,7,8-tetrahydro-9-oxa-1,3,6-triazabenzocyclohepten-4-yl]phenyl}urea]: the “PI3Ka IC50” value in test [1] was determined as 3450 nM. Also, the IC50 stood at 218 nM in test [2], 23 nM in test [3] and 22 nM in test [4].
Regarding `CN1CC(C)(C)Oc2nc(N3CC4CCC(C3)O4)nc(-c3ccc(NC(=O)Nc4ccccn4)cc3)c2C1=O` [Example 39, 1-Pyridin-2-yl-3-{4-[6,8,8-trimethyl-2-(8-oxa-3-azabicyclo[3.2.1]oct-3-yl)-5-oxo-5,6,7,8-tetrahydro-9-oxa-1,3,6-triazabenzocyclohepten-4-yl]phenyl}urea], in test [1], the “PI3Ka IC50” value amounted to 5870 nM. Besides, the IC50 in test [2] came to 207 nM; in test [3], 34 nM; in test [4], 26 nM.
In the case of `CCN1CC(C)(C)Oc2nc(N3CC4CCC(C3)O4)nc(-c3ccc(NC(=O)Nc4ccc(OCCOC)cn4)cc3)c2C1=O` [Example 40, 1-{4-[6-Ethyl-8,8-dimethyl-2-(8-oxa-3-azabicyclo[3.2.1]oct-3-yl)-5-oxo-5,6,7,8-tetrahydro-9-oxa-1,3,6-triazabenzocyclohepten-4-yl]phenyl}-3-[5-(2-methoxyethoxy)pyridin-2-yl]urea], the “PI3Ka IC50” value in test [1] is listed as greater than 10000 nM. Moreover, the IC50 in test [2] stood at 274 nM; in test [3], 59 nM; in test [4], 56 nM.
As to `CN1CC(C)(C)Oc2nc(N3C4CCC3COC4)nc(-c3ccc(NC(=O)Nc4ccccn4)cc3)c2C1=O` [Example 41, 1-Pyridin-2-yl-3-{4-[6,8,8-trimethyl-2-(3-oxa-8-azabicyclo[3.2.1]oct-8-yl)-5-oxo-5,6,7,8-tetrahydro-9-oxa-1,3,6-triazabenzocyclohepten-4-yl]phenyl}urea], the “PI3Ka IC50” value in test [1] is greater than 10000 nM. Moreover, the IC50 in test [2] came to 122 nM; in test [3], 31 nM; in test [4], 35 nM.
For the compound `Cc1ccc(NC(=O)Nc2ccc(-c3nc(N4CC5CCC(C4)O5)nc4c3C(=O)N(C)CC(C)(C)O4)cc2)nc1` [Example 42, 1-(5-Methylpyridin-2-yl)-3-{4-[6,8,8-trimethyl-2-(8-oxa-3-azabicyclo[3.2.1]oct-3-yl)-5-oxo-5,6,7,8-tetrahydro-9-oxa-1,3,6-triazabenzocyclohepten-4-yl]phenyl}urea], the “PI3Ka IC50” value in test [1] is greater than 10000 nM. Also, the IC50 in test [2] came to 350 nM; in test [3] it was 52 nM; in test [4] it was 43 nM.
The corresponding values for `CNC(=O)Nc1ccc(-c2nc(N3C4CCC3COC4)nc3c2C(=O)N(C)CC(C)(C)O3)cc1` [Example 43, 1-Methyl-3-{4-[6,8,8-trimethyl-2-(3-oxa-8-azabicyclo[3.2.1]oct-8-yl)-5-oxo-5,6,7,8-tetrahydro-9-oxa-1,3,6-triazabenzocyclohepten-4-yl]phenyl}urea] are 4730 nM, 82 nM, 20 nM and 27 nM.
On to `CCN1CC(C)(C)Oc2nc(N3CC4CCC(C3)O4)nc(-c3ccc(NC(=O)Nc4ccc(OC)cn4)cc3)c2C1=O` [Example 44, 1-{4-[6-Ethyl-8,8-dimethyl-2-(8-oxa-3-azabicyclo[3.2.1]oct-3-yl)-5-oxo-5,6,7,8-tetrahydro-9-oxa-1,3,6-triazabenzocyclohepten-4-yl]phenyl}-3-(5-methoxypyridin-2-yl)urea], for which, in test [1], the “PI3Ka IC50” value was greater than 10000 nM. Besides, the IC50 in test [2] is 220 nM; in test [3], 40 nM; in test [4] it was 34 nM.
In the case of `CNC(=O)Nc1ccc(-c2nc(N3CC4CCC(C3)O4)nc3c2C(=O)N(C)CC(C)(C)O3)cc1F` [Example 45, 1-{2-Fluoro-4-[6,8,8-trimethyl-2-(8-oxa-3-azabicyclo[3.2.1]oct-3-yl)-5-oxo-5,6,7,8-tetrahydro-9-oxa-1,3,6-triazabenzocyclohepten-4-yl]phenyl}-3-methylurea], the “PI3Ka IC50” value in test [1] stood at 4000 nM. In addition, the IC50 worked out at 85 nM in test [2], 32 nM in test [3] and 24 nM in test [4].
The corresponding values for `CNC(=O)Nc1ccc(-c2nc(N3C4CCC3COC4)nc3c2C(=O)N(C)CC(C)(C)O3)cc1F` [Example 46, 1-{2-Fluoro-4-[6,8,8-trimethyl-2-(3-oxa-8-azabicyclo[3.2.1]oct-8-yl)-5-oxo-5,6,7,8-tetrahydro-9-oxa-1,3,6-triazabenzocyclohepten-4-yl]phenyl}-3-methylurea] are 8880 nM, 90 nM, 24 nM and 26 nM.
For the compound `CCN1CC(C)(C)Oc2nc(N3CC4CCC(C3)O4)nc(-c3ccc(NC(=O)NC)cc3F)c2C1=O` [Example 47, 1-{4-[6-Ethyl-8,8-dimethyl-2-(8-oxa-3-azabicyclo[3.2.1]oct-3-yl)-5-oxo-5,6,7,8-tetrahydro-9-oxa-1,3,6-triazabenzocyclohepten-4-yl]-3-fluorophenyl}-3-methylurea], in test [1], the “PI3Ka IC50” value was greater than 10000 nM. Moreover, the IC50 stood at 564 nM in test [2], 151 nM in test [3] and 34 nM in test [4].
`Cc1ccc(NC(=O)Nc2ccc(-c3nc(N4C5CCC4COC5)nc4c3C(=O)N(C)CC(C)(C)O4)cc2)nc1` [Example 48, 1-(5-Methylpyridin-2-yl)-3-{4-[6,8,8-trimethyl-2-(3-oxa-8-azabicyclo[3.2.1]oct-8-yl)-5-oxo-5,6,7,8-tetrahydro-9-oxa-1,3,6-triazabenzocyclohepten-4-yl]phenyl}urea]: in test [1], the “PI3Ka IC50” value is greater than 10000 nM. Also, the values for the IC50 in test [2], in test [3] and in test [4] were 185 nM, 86 nM and 47 nM, respectively.
The corresponding values for `COc1ccc(NC(=O)Nc2ccc(-c3nc(N4C5CCC4COC5)nc4c3C(=O)N(C)CC(C)(C)O4)cc2)nc1` [Example 49, 1-(5-Methoxypyridin-2-yl)-3-{4-[6,8,8-trimethyl-2-(3-oxa-8-azabicyclo[3.2.1]oct-8-yl)-5-oxo-5,6,7,8-tetrahydro-9-oxa-1,3,6-triazabenzocyclohepten-4-yl]phenyl}urea] are greater than 10000 nM, 155 nM, 21 nM and 32 nM.
`CCN1CC(C)(C)Oc2nc(N3C4CCC3COC4)nc(-c3ccc(NC(=O)Nc4cccnc4)c(F)c3)c2C1=O` [Example 50, 1-{4-[6-Ethyl-8,8-dimethyl-2-(3-oxa-8-azabicyclo[3.2.1]oct-8-yl)-5-oxo-5,6,7,8-tetrahydro-9-oxa-1,3,6-triazabenzocyclohepten-4-yl]-2-fluorophenyl}-3-pyridin-3-ylurea]: in test [1], the “PI3Ka IC50” value turned out to be 2870 nM. In addition, the results for the IC50 in test [2], in test [3] and in test [4] were 40 nM, 7 nM and 39 nM, respectively.
Turning to `CCN1CC(C)(C)Oc2nc(N3C4CCC3COC4)nc(-c3ccc(NC(=O)Nc4ccncc4)c(F)c3)c2C1=O` [Example 51, 1-{4-[6-Ethyl-8,8-dimethyl-2-(3-oxa-8-azabicyclo[3.2.1]oct-8-yl)-5-oxo-5,6,7,8-tetrahydro-9-oxa-1,3,6-triazabenzocyclohepten-4-yl]-2-fluorophenyl}-3-pyridin-4-ylurea], in test [1], the “PI3Ka IC50” value stood at 1900 nM. Moreover, the IC50 in test [2] was found to be 12 nM; in test [3] it was 14 nM; in test [4] it was 20 nM.
As to `CCN1CC(C)(C)Oc2nc(N3CC4CCC(C3)O4)nc(-c3ccc(NC(=O)Nc4ccncc4)c(F)c3)c2C1=O` [Example 52, 1-{4-[6-Ethyl-8,8-dimethyl-2-(8-oxa-3-azabicyclo[3.2.1]oct-3-yl)-5-oxo-5,6,7,8-tetrahydro-9-oxa-1,3,6-triazabenzocyclohepten-4-yl]-2-fluorophenyl}-3-pyridin-4-ylurea], the “PI3Ka IC50” value in test [1] was found to be 1710 nM. Further, the IC50 in test [2] stood at 29 nM; in test [3] it was 16 nM; in test [4], 18 nM.
As for `CCN1CC(C)(C)Oc2nc(N3CCOC[C@@H]3C)nc(-c3ccc(NC(=O)O[C@H]4CCC[C@H]4O)cc3)c2C1=O` [Example 53, {4-[6-Ethyl-8,8-dimethyl-2-((S)-3-methylmorpholin-4-yl)-5-oxo-5,6,7,8-tetrahydro-9-oxa-1,3,6-triazabenzocyclohepten-4-yl]phenyl}carbamic acid (1S,2R)-2-hydroxycyclopentyl ester], the “PI3Ka IC50” value in test [1] is recorded as greater than 10000 nM. The IC50 in test [2] worked out at 2160 nM; in test [3] it was 555 nM; in test [4], 222 nM.
For the compound `COc1ccc(NC(=O)Nc2ccc(-c3nc(N4CC5CCC(C4)O5)nc4c3C(=O)N(C)CC(C)(C)O4)cc2)nc1` [Example 54, 1-(5-Methoxypyridin-2-yl)-3-{4-[6,8,8-trimethyl-2-(8-oxa-3-azabicyclo[3.2.1]oct-3-yl)-5-oxo-5,6,7,8-tetrahydro-9-oxa-1,3,6-triazabenzocyclohepten-4-yl]phenyl}urea], in test [1], the “PI3Ka IC50” value was determined as 3000 nM. Moreover, the values for the IC50 in test [2], in test [3] and in test [4] were 161 nM, 41 nM and 32 nM, respectively.

The values above are taken from patent US9120812B2, “Pyrimidooxazocine derivatives as mTOR-inhibitors” (SANOFI, priority 2012, dated 2015).
